{
  "source": "patent US20220195059A1",
  "about": "“Rank Pathway Inhibitors in Combination with CDK Inhibitors” (INSTITUTO DE MEDICINA MOLECULAR JOÃO LOBO ANTUNES, priority 2019, published 2022)",
  "molecules": {"B1": {"name": "OPG: full-length OPG protein, soluble decoy receptor for RANK ligand (protein, UniProt O00300 1-401, looked up)", "chain": "MNNLLCCALVFLDISIKWTTQETFPPKYLHYDEETSHQLLCDKCPPGTYLKQHCTAKWKTVCAPCPDHYYTDSWHTSDECLYCSPVCKELQYVKQECNRTHNRVCECKEGRYLEIEFCLKHRSCPPGFGVVQAGTPERNTVCKRCPDGFFSNETSSKAPCRKHTNCSVFGLLLTQKGNATHDNICSGNSESTQKCGIDVTLCEEAFFRFAVPTKFTPNWLSVLVDNLPGTKVNAESVERIKRQHSSQEQTFQLLKLWKHQNKDQDIVKKIIQDIDLCENSVQRHIGHANLTFEQLRSLMESLPGKKVGAEDIEKTIKACKPSDQILKLLSLWRIKNGDQDTLKGLMHALKHSKTYHFPKTVTQSLKKTIRFLHSFTMYKLYQKLFLEMIGNQVQSVKISCL", "modifications": "full-length", "notes": "full-length OPG protein, soluble decoy receptor for RANK ligand"}},
  "assay_type_in_all_cases": "cell-based, human",
  "key": {"[1]": {"tested_on": "RANK OE cells (MCF-7^OE, T47D^OE) and parental MCF-7, T47D cells", "assay": "Alamar blue viability assay, RANK OE luminal breast cancer cells vs parental counterparts", "conditions": "for sensitivity of RANK OE cells to the drug (cell viability): RANK OE cells vs parental counterparts, drug alone", "experimental": "(§1) Cells were seeded in 96 well-plates (2-5×10^4 cells/mL), with or without paclitaxel (Y0000698, Sigma), doxorubicin hydrochloride (D2975000, Sigma), palbociclib (PD 0332991 isethionate, PZ0199, Sigma), ribociclib (LEE011 succinate, SC-488174, Santa Cruz), abemaciclib mesylate (LY2835219, S7158, Selleckchem), fulvestrant (S1191, Selleckchem), everolimus (#73122, StemCell Technologies), full length human OPG (SRP3132, Sigma), and OPG-Fc (Amgen). Medium was replaced every 2 days. After 7 days, 1:10 Alamar blue (Invitrogen) was added to each well and fluorescence was measured 2 hours after incubation (excitation 560 nm; emission 590 nm) in an Infinite M200 microplate reader (Tecan).\nIn particular, RANK OE cells were tested for responsiveness to hormone therapy. Briefly, RANK OE cells were seeded in multi-well plates and exposed to fulvestrant for 7 days.\nIn this assay, however, RANK OE cells were exposed to a CDK 4/6 inhibitor alone or in combination with an inhibitor of the RANK pathway, in order to test the effect of blocking the RANK pathway in this context. Briefly, RANK OE cells were seeded in multi-well plates and exposed to palbociclib, ribociclib or abemaciclib alone or in combination with OPG-Fc for 7 days. Osteoprotegrin (OPG) is the physiologic soluble decoy receptor for RANK ligand (RANKL), and OPG-Fc is a fusion protein comprising only the four cysteine-rich domains of OPG (D1 to D4) fused with the Fc domain of an IgG1 antibody.\nIn this study, the CDK4/6 inhibitors palbociclib and ribociclib were exposed to RANK OE cells in combination with fulvestrant or everolimus. This combination therapy was then tested alone or in combination with OPG, an inhibitor of the RANK pathway. In this assay, the full-length OPG protein was used, in contrast to the previous example utilizing OPG-Fc.\nTo address this question, cell growth in the presence or absence of a CDK4 inhibitor was quantified. Briefly, cells were seeded in 96-well plates and exposed to two different drugs, CDK4 inhibitors, 3-ATA (FIG. 20A) or Cdk4 inhibitor Ill (FIG. 20B) for seven days. Medium was replaced every two days, and viability was assessed by Alamar blue assay. FIG. 20A provides the cell growth quantification in the presence of the CDK4 inhibitor 3-ATA and FIG. 20B provides the cell growth quantification in the presence of another CDK4 inhibitor, Cdk4 Inhibitor Ill. The results are the mean of at least three independent assays, with 4 replicates per assay, and presented as the mean±SEM. p-value was calculated using 2-way ANOVA, *p<0.05, **p<0.01, ***p<0.001.\nTo answer this question, cell growth in the presence of the pan-CDK inhibitor seliciclib (also known as roscovitine or CYC202) was analyzed. Briefly, cells were seeded in 96-well plates and exposed to different drugs for seven days. Medium was replaced every two days, and viability was assessed by Alamar blue assay.\n(§2) Cells were seeded in 96 well-plates (2-5×10^4 cells/mL), with or without palbociclib (PD 0332991 isethionate, PZ0199, Sigma), ribociclib (LEE011 succinate, SC-488174, Santa Cruz), abemaciclib mesylate (LY2835219, S7158, Selleckchem), 3-ATA (sc-202414, Santa Cruz), Cdk4 inhibitor Ill (sc-202988, Santa Cruz), seliciclib (S1153, Selleckchem), and OPG-Fc (PL-33324, Amgen). Medium was replaced every 2 days. After 7 days, 1:10 Alamar blue (Invitrogen) was added to each well and fluorescence was measured 2 hours after incubation (excitation 560 nm; emission 590 nm) in an Infinite M200 microplate reader (Tecan)."}, "[2]": {"tested_on": "TNBC cells (MDA-MB-231, MDA-MB-436, MDA-MB-468, MDA-MB-157, HCC1937, BT-20)", "assay": "Alamar blue viability assay, TNBC cell lines with or without OPG-Fc", "conditions": "7 days", "experimental": "as §1\nMedium was replaced every two days, and viability was assessed by Alamar blue assay.\nas §2"}, "MDA-MB-231 TNBC cells": {"tested_on": "MDA-MB-231 TNBC cells", "assay": "Alamar blue viability assay, MDA-MB-231 TNBC cells with or without RANK knockdown", "conditions": "7 days", "experimental": "For lentiviral transduction, MDA-MB-231GFP+Luc+ cells were seeded in 24-well plates, at a density of 4×10^4 cells/well. 24 hours after seeding, medium was replaced by fresh medium containing 8 μg/ml Polybrene (Sigma) and RANK shRNA (h) lentiviral particles (15-20 μl/well; sc-42960-V, Santa Cruz) or control shRNA lentiviral particles (15-20 μl/well; sc-108080, Santa Cruz). Cells were selected with 0.5 μg/mL Puromycin dihydrochloride (Sigma) starting three days after transduction.\nas §1\nRANK KD clones were first generated for use in sensitivity assays. Briefly, MCF-7GFP+Luc+ cells were seeded in multi-well plates and then exposed to fresh medium comprising RANK shRNA (h) lentiviral particles or control shRNA lentiviral particles. The transduced cells were selected using Puromycin dihydrochloride starting three days post-transduction."}},
  "data": [
    {"molecule": "Nc1ccc2c(=S)c3ccccc3[nH]c2c1", "note": "[3-ATA, 3-Amino-9-thio(10H)-acridone]", "values": [
      {"measurement": "sensitivity of RANK OE cells to the drug (cell viability)", "setting": "[1]; 7 days", "value": "resistant"},
      {"measurement": "resistance of RANK OE cells to doses above 2.5 μM", "setting": "[1]; RANK OE cells, 7 days", "value": "resistant to even higher doses"}
    ]},
    {"molecule": "Cc1ccc(NC2=CC(=O)c3sc(C)nc3C2=O)cc1", "note": "[Cdk4 inhibitor Ill, 5-(N-(4-Methylphenyl)amino)-2-methyl-4,7-dioxobenzothiazole]", "values": [
      {"measurement": "sensitivity of RANK OE cells to the drug (cell viability)", "setting": "[1]; 7 days", "value": "resistant"}
    ]},
    {"molecule": "CCN1CCN(Cc2ccc(Nc3ncc(F)c(-c4cc(F)c5nc(C)n(C(C)C)c5c4)n3)nc2)CC1", "note": "[abemaciclib]", "values": [
      {"measurement": "sensitivity of RANK OE cells to the drug (cell viability)", "setting": "[1]; 7 days", "value": "decreased sensitivity"},
      {"measurement": "sensitivity of TNBC cells to CDK4/6 inhibitor (cell viability)", "setting": "[2]", "value": "resistance"}
    ]},
    {"molecule": "C[C@]12CC[C@@H]3c4ccc(O)cc4C[C@@H](CCCCCCCCC[S+]([O-])CCCC(F)(F)C(F)(F)F)[C@H]3[C@@H]1CC[C@@H]2O", "note": "(stereo partly shown) [fulvestrant]", "values": [
      {"measurement": "sensitivity of RANK OE cells to the drug (cell viability)", "setting": "[1]; 7 days", "value": "decreased sensitivity"}
    ]},
    {"molecule": "CN(C)C(=O)c1cc2cnc(Nc3ccc(N4CCNCC4)cn3)nc2n1C1CCCC1", "note": "[ribociclib]", "values": [
      {"measurement": "sensitivity of RANK OE cells to the drug (cell viability)", "setting": "[1]; 7 days", "value": "decreased sensitivity"},
      {"measurement": "sensitivity to CDK4/6 inhibitor (cell viability)", "setting": "MDA-MB-231 TNBC cells; MDA-231 cells and MDA-231 shControl cells", "value": "resistance"},
      {"measurement": "sensitivity to CDK4/6 inhibitor (cell viability)", "setting": "MDA-MB-231 TNBC cells; TNBC RANK KD cells (MDA-231 shRANK) vs RANK expressing cells", "value": "restored sensitivity"},
      {"measurement": "sensitivity of TNBC cells to CDK4/6 inhibitor (cell viability)", "setting": "[2]", "value": "resistance"}
    ]},
    {"molecule": "CC[C@H](CO)Nc1nc(NCc2ccccc2)c2ncn(C(C)C)c2n1", "note": "[seliciclib]", "values": [
      {"measurement": "sensitivity of RANK OE cells to pan-CDK inhibitor", "setting": "[1]; RANK OE cells vs parental (RANK low) cells, 7 days", "value": "less sensitive"},
      {"measurement": "enhancement of the effect of palbociclib, or palbociclib plus OPG-Fc", "setting": "[1]; RANK OE cells, 7 days", "value": "did not enhance"}
    ]},
    {"molecule": "B1", "values": [
      {"measurement": "sensitivity of RANK OE cells to CDK4/6 inhibitor combination therapy when further combined with OPG", "setting": "[1]; full-length OPG added to palbociclib or ribociclib plus fulvestrant or everolimus", "value": "restored"}
    ]}
  ]
}
